From ChEMBL document CHEMBL5046258, “Anti-inflammatory Dimeric Benzophenones from an Endophytic Pleosporales Species” (J Nat Prod, 2022)

Each compound was assayed on RAW264.7 (assay: Antiinflammatory activity in mouse RAW 264.7 cells assessed as inhibition of LPS-induced nitric oxide production measured after 24 hrs by Griess reagent assay). Conditions: RAW264.7, 24 h.
Type: functional, cell-based

SMILES | IC50 [µM]
Cc1cc(O)cc2oc(=O)c3c(O)cc(O)cc3c12 [ALTERNARIOL] | 51.4
COc1cc(C)c2c(=O)c3c(O)cc(OC)cc3oc2c1 [LICHEXANTHONE] | 19.5
COc1cc(C)c(C(=O)c2c(O)cc(OC)c(Cc3c(OC)cc(O)c(C(=O)c4c(C)cc(OC)cc4OC)c3O)c2O)c(OC)c1 | 8.8
COc1cc(O)c(C(=O)c2c(C)cc(O)cc2OC)c(O)c1 | 35.1
COc1cc(O)c(C(=O)c2c(C)cc(OC)cc2OC)c(O)c1 | 45.2
COc1cc(C)c(C(=O)c2c(O)cc(OC)c(C(CCC(=O)O)c3c(OC)cc(O)c(C(=O)c4c(C)cc(OC)cc4OC)c3O)c2O)c(OC)c1 | 15.6
C[C@@H]1C[C@H]2[C@@H]3CCC4=CC(=O)C=C[C@]4(C)[C@@]3(F)[C@@H](O)C[C@]2(C)[C@@]1(O)C(=O)CO [DEXAMETHASONE] | 22.2
Cc1cc(O)cc2oc3cc(O)cc(O)c3c(=O)c12 [NORLICHEXANTHONE] | 35.2
Cc1cc2c(C)cc(O)cc2c(=O)o1 | 46.1
COc1cc(O)c2c(c1)C1=CC(=O)C(O)=CC1(C)OC2=O (stereo unspecified) [DEHYDROALTENUSIN] | 39.1
COc1cc(O)c2c(=O)c3c(C)c(O)c(OC)cc3oc2c1 | 22.4
COc1cc(C)c(C(=O)c2c(O)cc(OC)c(Cc3c(O)cc(O)cc3CC(C)=O)c2O)c(OC)c1 | 18.1
COc1cc(C)c(C(=O)c2c(O)cc(O)cc2O)c(OC)c1 | 39
COc1cc(O)c(C(=O)Oc2c(C)cc(O)cc2OC)c(O)c1 | 49.7
COc1cc(C)c(C(=O)c2c(O)cc(OC)cc2O[C@@H]2O[C@H](CO)[C@@H](O)[C@H](O)[C@H]2O)c(O)c1 | 23.3
COc1cc(C)c(C(=O)c2c(O)cc(OC)cc2O[C@@H]2O[C@H](CO)[C@@H](O)[C@H](O)[C@H]2O)c(OC)c1 | 43.3
